Data on seven molecules can be found in BindingDB's records for doi:10.1038/nchembio.2174 (Oncology Innovative Medicines Unit, 2016).

Molecules are shown by their SMILES.

The target of the test is T1, Induced myeloid leukemia cell differentiation protein Mcl-1 [171-327] (Homo sapiens, UniProt Q07820).
T1 construct: 171-327
In words: TR-FRET Binding A. The following applies: pH 7.4; 24 °C. The protocol:
Compound IC50 values were assessed following a 10-point, half-log10 dilution schema starting at 10 uM compound concentration. The assay was performed in 384-well LV plates (Matrix 4365, Thermo Scientific) and run in the presence and absence of the compound of interest. Each well of 12 uL assay mixture contained 10 mM Tris (pH 7.4), 1 mM DTT, 0.005% Tween-20, 150 mM NaCl, 10% DMSO, 3 nM GST-Mcl-1, 1 nM LanthaScreen Eu-tagged GST antibody (#PV5594, Invitrogen, Life Technologies), and 8 nM fluorescently labeled peptide. Reactions were incubated at 24 °C for 60 min before reading on a Tecan F500 spectrofluorometer with excitation at 340 nm and emission at 620 nm and 665 nm. Subsequently, the ratio of fluorescence emission intensity at 665 nm to 620 nm was calculated for each reaction, and the dose response of the ratio to testing compound concentration was fitted to a select fit model that will provide the best fit quality using automatic parameters to derive IC50 values for each testing compound.
Background: TR-FRET usually uses a lanthanide donor and a delayed reading to cut background.

T1 sequence (Q07820 171-327): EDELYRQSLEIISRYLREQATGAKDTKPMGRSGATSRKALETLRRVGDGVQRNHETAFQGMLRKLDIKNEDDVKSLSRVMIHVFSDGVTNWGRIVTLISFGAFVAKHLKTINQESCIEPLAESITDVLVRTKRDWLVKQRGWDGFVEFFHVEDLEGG

As usually defined, the IC50 is the concentration that inhibits the measured activity by half. A high value points to a need for much substance. The Ki is the dissociation constant of the complex between target and ligand, obtained from inhibition or displacement. A low value points to higher affinity. The molecule `Cc1c(-c2cccc3c(CCCOc4cccc5ccccc45)c(C(=O)O)n(C)c23)c(COc2ccc(B(O)O)c(C=O)c2)nn1C` [7-(3-((4-Borono-3-formylphenoxy)methyl)-1,5-dimethyl-1Hpyrazol-4-yl)-1-methyl-3-(3-(naphthalen-1-yloxy)propyl)-1H-indole-2-carboxylic acid, 11] yielded an IC50 of 4.2 nM and a Ki of 1.2 nM.
The matching figures for `Cc1c(-c2cccc3c(CCCOc4cccc5ccccc45)c(C(=O)O)[nH]c23)c(COc2cccc(C=O)c2)nn1C` [7-(3-((3-formylphenoxy)methyl)-1,5-dimethyl-1H-pyrazol-4-yl)-3-(3-(naphthalen-1-yloxy)propyl)-1H-indole-2-carboxylic acid, 7]: 59.5 nM and 16 nM.
Turning to `CCc1nn(C)c(CC)c1-c1cccc2c(CCCOc3cccc4ccccc34)c(C(=O)O)n(CCN3CCOCC3)c12` [Mcl-1 inhibitor 12], the IC50 came out at 5.96 nM and affinity was put at a Ki of 1.6 nM.
The matching figures for `Cc1c(-c2cccc3c(CCCOc4cccc5ccccc45)c(C(=O)O)[nH]c23)c(COc2ccccc2)nn1C` [Mcl-1 inhibitor 10]: 383 nM and 104 nM.
Take `CC(=O)c1cc(OCc2nn(C)c(C)c2-c2cccc3c(CCCOc4cccc5ccccc45)c(C(=O)O)[nH]c23)ccc1B(O)O` [7-(3-((3-Acetyl-4-boronophenoxy)methyl)-1,5-dimethyl-1H-pyrazol-4-yl)-3-(3-(naphthalen-1-yloxy)propyl)-1H-indole-2-carboxylic acid, 6]: the half-inhibitory concentration (IC50) is 4.7 nM and the affinity corresponds to a Ki of 1.2 nM.
The matching figures for `Cc1c(-c2cccc3c(CCCOc4cccc5ccccc45)c(C(=O)O)[nH]c23)c(COc2ccc(B(O)O)c(C=O)c2)nn1C` [7-(3-((4-Borono-3-formylphenoxy)methyl)-1,5-dimethyl-1Hpyrazol-4-yl)-3-(3-(naphthalen-1-yloxy)propyl)-1H-indole-2-carboxylic acid, 5]: 3.4 nM and 0.9 nM.
The matching figures for `CC(=O)c1cccc(OCc2nn(C)c(C)c2-c2cccc3c(CCCOc4cccc5ccccc45)c(C(=O)O)[nH]c23)c1` [7-(3-((3-Acetylphenoxy)methyl)-1,5-dimethyl-1H-pyrazol-4-yl)-3-(3-(naphthalen-1-yloxy)propyl)-1H-indole-2-carboxylic acid, 8]: 237 nM and 64 nM.
